According to patent publication US12077503B2, “Substituted cyclic amides and their use as herbicides” (FMC CORPORATION, priority 2015, dated 2024):

Tests used:
Assay type in all cases: in vivo
[1] = test system: barnyardgrass (Echinochloa crus-galli); experiment: Test A postemergence; conditions: Echinochloa crus-galli, post-emergence, 240 h, read-out: Plant response rating, Barnyardgrass
Method in brief: (§1)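 Preemergence soil spray on seeded pots or post-emergence spray on 1–2 leaf plants, in loam–sand blend. Greenhouse ~10 d. Visual rating 0–100 against untreated plants.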

[2] = test system: blackgrass (Alopecurus myosuroides); experiment: Test A postemergence; conditions: Alopecurus myosuroides, post-emergence, 240 h, read-out: Plant response rating, Blackgrass
Method in brief: as §1

[3] = test system: corn (Zea mays); experiment: Test A postemergence; conditions: Zea mays, post-emergence, 240 h
Method in brief: as §1

[4] = test system: giant foxtail (Setaria faberii); experiment: Test A postemergence; conditions: Setaria faberi, post-emergence, 240 h, read-out: Plant response rating, Foxtail, Giant
Method in brief: as §1

[5] = test system: pigweed (Amaranthus retroflexus); experiment: Test A postemergence; conditions: Amaranthus retroflexus, post-emergence, 240 h, read-out: Plant response rating, Pigweed
Method in brief: as §1

[6] = test system: barnyardgrass (Echinochloa crus-galli); experiment: Test C preemergence; conditions: for Plant response rating (scale of 0 to 100), Barnyardgrass: 0 is no effect, 100 is complete control
Method in brief: (§2)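 Scores of 0 to 100 reflect visual comparison with control plants, where 0 means no effect and 100 complete control, made 13 to 15 d after treatment. Application was preemergence to seeds in loam-sand soil or postemergence to plants 2 to 18 cm tall in peat-based mix, using a surfactant-containing solvent formulation.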

[7] = test system: blackgrass (Alopecurus myosuroides); experiment: Test C preemergence; conditions: for Plant response rating (scale of 0 to 100), Blackgrass: 0 is no effect, 100 is complete control
Method in brief: as §2

[8] = test system: crabgrass, large (large crabgrass, Digitaria sanguinalis); experiment: Test C preemergence; conditions: for Plant response rating (scale of 0 to 100), Crabgrass, Large: 0 is no effect, 100 is complete control
Method in brief: as §2

[9] = test system: foxtail, giant (giant foxtail, Setaria faberii); experiment: Test C preemergence; conditions: for Plant response rating (scale of 0 to 100), Foxtail, Giant: 0 is no effect, 100 is complete control
Method in brief: as §2

[10] = test system: lambsquarters (Chenopodium album); experiment: Test C preemergence; conditions: for Plant response rating (scale of 0 to 100), Lambsquarters: 0 is no effect, 100 is complete control
Method in brief: as §2

[11] = test system: oilseed rape (Brassica napus); experiment: Test C preemergence; conditions: for Plant response rating (scale of 0 to 100), Oilseed Rape: 0 is no effect, 100 is complete control
Method in brief: as §2

[12] = test system: ryegrass, Italian (Italian ryegrass, Lolium multiflorum); experiment: Test C preemergence; conditions: for Plant response rating (scale of 0 to 100), Ryegrass, Italian: 0 is no effect, 100 is complete control
Method in brief: as §2

[13] = test system: soybean (Glycine max); experiment: Test C preemergence; conditions: for Plant response rating (scale of 0 to 100), Soybean: 0 is no effect, 100 is complete control
Method in brief: as §2

[14] = test system: velvetleaf (Abutilon theophrasti); experiment: Test C preemergence; conditions: for Plant response rating (scale of 0 to 100), Velvetleaf: 0 is no effect, 100 is complete control
Method in brief: as §2

[15] = test system: waterhemp (common waterhemp, Amaranthus rudis); experiment: Test C preemergence; conditions: for Plant response rating (scale of 0 to 100), Waterhemp: 0 is no effect, 100 is complete control
Method in brief: as §2

[16] = 125 g ai/ha, postemergence, visual rating after approx. 10 d, 0 to 100 scale (0 no effect, 100 complete control)
[17] = Postemergence, 500 g ai/ha, 0 to 100 scale where 0 is no effect and 100 is complete control
[18] = 62 g ai/ha, scale 0 to 100, 0 no effect, 100 complete control

SMILES: CN1C[C@H](c2ccc(C(F)(F)F)cc2)[C@@H](C(=O)Nc2cccc(F)c2F)C1=O [Compound 623, (3S,4S)—N-(2,3-difluorophenyl)-1-methyl-2-oxo-4-[4-(trifluoromethyl)phenyl]-3-pyrrolidinecarboxamide]
- pest or weed control at 125 g/ha [1, 16]: 90%
- pest or weed control at 500 g/ha [1, 17]: 90%
- pest or weed control at 125 g/ha [2, 16]: 50%
- pest or weed control at 500 g/ha [2, 17]: 60%
- Corn plant response rating (crop injury, 0 = no effect, 100 = complete kill) at 125 g/ha [3, 16]: 60%
- Corn plant response rating (crop injury, 0 = no effect, 100 = complete kill) at 500 g/ha [3, 17]: 70%
- pest or weed control at 125 g/ha [4, 16]: 90%
- pest or weed control at 500 g/ha [4, 17]: 90%
- pest or weed control at 125 g/ha [5, 16]: 60%
- pest or weed control at 500 g/ha [5, 17]: 60%
- Plant response rating (scale of 0 to 100), Barnyardgrass ([6]; 8 g ai/ha): 90
- Plant response rating (scale of 0 to 100), Barnyardgrass ([6]; 16 g ai/ha): 90
- Plant response rating (scale of 0 to 100), Barnyardgrass ([6]; 31 g ai/ha): 90
- Plant response rating, Barnyardgrass [6, 18]: 95
- Plant response rating (scale of 0 to 100), Blackgrass ([7]; 8 g ai/ha): 0
- Plant response rating (scale of 0 to 100), Blackgrass ([7]; 16 g ai/ha): 40
- Plant response rating (scale of 0 to 100), Blackgrass ([7]; 31 g ai/ha): 60
- Plant response rating, Blackgrass [7, 18]: 90
- Plant response rating (scale of 0 to 100), Crabgrass, Large ([8]; 8 g ai/ha): 90
- Plant response rating (scale of 0 to 100), Crabgrass, Large ([8]; 16 g ai/ha): 90
- Plant response rating (scale of 0 to 100), Crabgrass, Large ([8]; 31 g ai/ha): 95
- Plant response rating, Crabgrass, Large [8, 18]: 95
- Plant response rating (scale of 0 to 100), Foxtail, Giant ([9]; 8 g ai/ha): 85
- Plant response rating (scale of 0 to 100), Foxtail, Giant ([9]; 16 g ai/ha): 90
- Plant response rating (scale of 0 to 100), Foxtail, Giant ([9]; 31 g ai/ha): 90
- Plant response rating, Foxtail, Giant [9, 18]: 90
- Plant response rating (scale of 0 to 100), Lambsquarters ([10]; 8 g ai/ha): 10
- Plant response rating (scale of 0 to 100), Lambsquarters ([10]; 16 g ai/ha): 30
- Plant response rating (scale of 0 to 100), Lambsquarters ([10]; 31 g ai/ha): 60
- Plant response rating, Lambsquarters [10, 18]: 50
- Plant response rating (scale of 0 to 100), Oilseed Rape ([11]; 8 g ai/ha): 80
- Plant response rating (scale of 0 to 100), Oilseed Rape ([11]; 16 g ai/ha): 0
- Plant response rating (scale of 0 to 100), Oilseed Rape ([11]; 31 g ai/ha): 30
- Plant response rating, Oilseed Rape [11, 18]: 85
- Plant response rating (scale of 0 to 100), Ryegrass, Italian ([12]; 8 g ai/ha): 0
- Plant response rating (scale of 0 to 100), Ryegrass, Italian ([12]; 16 g ai/ha): 20
- Plant response rating (scale of 0 to 100), Ryegrass, Italian ([12]; 31 g ai/ha): 45
- Plant response rating, Ryegrass, Italian [12, 18]: 55
- Plant response rating (scale of 0 to 100), Soybean ([13]; 8 g ai/ha): 0
- Plant response rating (scale of 0 to 100), Soybean ([13]; 16 g ai/ha): 0
- Plant response rating (scale of 0 to 100), Soybean ([13]; 31 g ai/ha): 0
- Plant response rating, Soybean [13, 18]: 0
- Plant response rating (scale of 0 to 100), Velvetleaf ([14]; 8 g ai/ha): 0
- Plant response rating (scale of 0 to 100), Velvetleaf ([14]; 16 g ai/ha): 0
- Plant response rating (scale of 0 to 100), Velvetleaf ([14]; 31 g ai/ha): 5
- Plant response rating, Velvetleaf [14, 18]: 60
- Plant response rating (scale of 0 to 100), Waterhemp ([15]; 8 g ai/ha): 45
- Plant response rating (scale of 0 to 100), Waterhemp ([15]; 16 g ai/ha): 75
- Plant response rating (scale of 0 to 100), Waterhemp ([15]; 31 g ai/ha): 85
- Plant response rating, Waterhemp [15, 18]: 90
